The subject of one series is HIV-1. Nature of the series: HIV-1 single-round infectious luciferase reporter virus (pseudotype) assay in HeLa CD4 CCR5 cells. It counts as cell-based. The method in brief: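 Reporter pseudovirus produced in 293 cells infected HeLa cells expressing CD4/CCR5 at MOI ~0.01, with compound present at <10 μM final. Infection was quantified as luciferase luminescence after 72 h.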
In general terms: Reporter assays use an easily measured gene product as a stand-in for the process of interest.

The subject of a further series is HeLa cells. The series is described as follows: Cytotoxicity assay in HeLa cells (MTT dye reduction, CC50). The settings on record: cytotoxicity; Yes = CC50 above 100 uM, No = not. The procedure:
• Virus production—Human embryonic Kidney cell line, 293, propagated in Dulbecco's Modified Eagle Medium (Life Technologies, Gaithersburg, Md.) containing 10% fetal Bovine serum (FBS, Sigma, St. Louis, Mo.). • Virus infection—Human epithelial cell line, HeLa, expressing the HIV-1 receptors CD4 and CCR^5 was propagated in Dulbecco's Modified Eagle Medium (Life Technologies, Gaithersburg, Md.) containing 10% fetal Bovine serum (FBS, Sigma, St. Louis, Mo.) and supplemented with 0.2 mg/mL Geneticin (Life Technologies, Gaithersburg, Md.) and 0.4 mg/mL Zeocin (Invitrogen, Carlsbad, Calif.). […] Transfections were performed using lipofectAMINE PLUS reagent as described by the manufacturer (Life Technologies, Gaithersburg, Md.). Experiment • 1. Compound was added to HeLa CD4 CCR5 cells plated in 96 well plates at a cell density of 5×10^4 cells per well in 100 μl Dulbecco's Modified Eagle Medium containing 10% fetal Bovine serum at a concentration of […]. • 2. 100 μl of single-round infectious reporter virus in Dulbecco's Modified Eagle Medium was then added to the plated cells and compound at an approximate multiplicity of infection (MOI) of 0.01, resulting in a final volume of 200 μl per well and a final compound concentration of <10 μM. • 3. Samples were harvested 72 h after infection. • 4. Viral infection was monitored by measuring luciferase expression from viral DNA in the infected cells using a luciferase reporter gene assay kit (Roche Molecular Biochemicals, Indianapolis, Ind.). Infected cell supernatants were removed and 50 μl of Dulbecco's Modified Eagle Medium (without phenol red) and 50 μl of luciferase assay reagent reconstituted as described by the manufacturer (Roche Molecular Biochemicals, Indianapolis, Ind.) was added per well. Luciferase activity was then quantified by measuring luminescence using a Wallac microbeta scintillation counter. • 5. […] An EC50 provides a method for comparing the antiviral potency of the compounds of this invention. The effective concentration for fifty percent inhibition (EC50) was calculated with the Microsoft Excel Xlfit curve fitting software. For each compound, curves were generated from percent inhibition calculated at 10 different concentrations by using a four paramenter logistic model (model 205). Table 1 is the key for the data in Tables 2-4. Cytoxicity assays were conducted with the same HeLa using methodology well known in the art.
For accuracy, the determined measure of viral inhibition is an EC50; but the minimum plasma concentrations which should be maintained in a patient is generally believed to be at least four or five fold higher. […] Lower is better. • 4) Estimating potential exposure in man by measuring parameters such as AUC and rate of clearance by oral and iv dosing in rats. High exposure and low clearance was desired.

[1] abbreviates: Human immunodeficiency virus 1, HeLa-CD4/CCR5, read-out: EC50 Group from Table 1, Table 4, HeLa CD4 CCR5 cells, single-round luciferase reporter virus.
Where [2] appears, read: Human immunodeficiency virus 1, HeLa-CD4/CCR5, read-out: EC50 category, HIV-1 single-round reporter virus assay, category 1/2/3 per Table A1 key.
[3] abbreviates: Human immunodeficiency virus 1, HeLa-CD4/CCR5, read-out: EC50 Group from TABLE 1, HeLa CD4 CCR5 cells, single-round infectious luciferase reporter virus.
Setting [4] is: Human immunodeficiency virus 1, HeLa-CD4/CCR5, read-out: EC50 Group from Table 1, Table 2-1, HeLa CD4 CCR5 cells, single-round luciferase reporter virus.

Molecules are shown by their SMILES. Read-outs that look alike come from different tables or passages of the source.

For the compound `O=C(C(=O)N1CCN(C(=O)c2ccccc2)CC1)c1c[nH]c2c(-n3ccnn3)ccnc12` [Example 206, 1-(4-benzoyl-piperazin-1-yl)-2-(7-[1,2,3]triazol-1-yl-1H-pyrrolo[3,2-b]pyridin-3-yl)-ethane-1,2-dione], the figures for the concentration giving a half-maximal response (EC50) in the series on HIV-1 (setting [1]) and in the series on HIV-1 (setting [2]) were under 1000 nM and 0.2 to 1000 nM, respectively. Moreover, the “CC50 > 100 uM” value in the series with HeLa cells is “Yes”.
As for `O=C(C(=O)N1CCN(C(=O)c2ccccc2)CC1)c1c[nH]c2c(-n3cccc3)ncc(F)c12` [Example 220], the EC50 in the series on HIV-1 (setting [3]) was under 1000 nM; in the series with HIV-1 (setting [2]), 0.2 to 1000 nM. In the series with HeLa cells, the “CC50 > 100 uM” value is listed as “Yes”.
In the same order, the values of `C[C@@H]1CN(C(=O)c2ccccc2)CCN1C(=O)C(=O)c1c[nH]c2c(-c3nccs3)ncc(F)c12` [Example 37, 1-benzoyl-3-(R)-methyl-4-[(4-fluoro-7-(thiazol-2-yl)-6-azaindol-3-yl)-oxoacetyl]piperazine] are under 1000 nM, under 0.2 nM and “No”.
In the same order, the values of `O=C(C(=O)N1CCN(C(=O)c2ccccc2)CC1)c1c[nH]c2c(-c3cnc[nH]3)ncc(F)c12` [Example 148] are under 1000 nM, 0.2 to 1000 nM and “Yes”.
Regarding `O=C(C(=O)N1CCN(C(=O)c2ccccc2)CC1)c1c[nH]c2c(-n3cccn3)ccnc12` [Example 208, 1-(4-Benzoyl-piperazin-1-yl)-2-(7-pyrazol-1-yl-1H-pyrrolo[3,2-b]pyridin-3-yl)-ethane-1,2-dione], the figures for the EC50 with HIV-1 (setting [1]) and in the series with HIV-1 (setting [2]) were under 1000 nM and 0.2 to 1000 nM, respectively. Moreover, the “CC50 > 100 uM” value in the series with HeLa cells is listed as “Yes”.
Turning to `C[C@@H]1CN(C(=O)c2ccccc2)CCN1C(=O)C(=O)c1c[nH]c2c(C(=O)c3cccs3)ccnc12` [Example 168, 1-benzoyl-3-(R)-methyl-4-[(7-(2-thienylcarbonyl)-4-azaindol-3-yl)-oxoacetyl]piperazine], in the series on HIV-1 (setting [1]), the EC50 is under 1000 nM.
For `COCc1ccn(-c2ncc(OC)c3c(C(=O)C(=O)N4CCN(C(=O)c5ccccc5)[C@H](C)C4)c[nH]c23)n1` [Example 238, (R)-1-benzoyl-2-methyl-4-[(4-methoxy-7-(3-methoxymethyl-pyrazol-1-yl)-6-azaindol-3-yl)-oxoacetyl]piperazine], the half-maximal effective concentration (EC50) in the series with HIV-1 (setting [4]) is under 1000 nM.
For `COc1cnc(-n2ccc(C(C)(C)O)n2)c2[nH]cc(C(=O)C(=O)N3CCN(C(=O)c4ccccc4)CC3)c12` [Example 247, 1-benzoyl-4-[(4-methoxy-7-(3-(1-hydroxyl-1-methylethyl)-pyrazol-1-yl)-6-azaindol-3-yl)-oxoacetyl]piperazine], in the series on HIV-1 (setting [3]), the EC50 is under 1000 nM.
On the same count and under the same terms, the same measure for `COc1cnc(-n2ccc(CCO)n2)c2[nH]cc(C(=O)C(=O)N3CCN(C(=O)c4ccccc4)CC3)c12` [Example 248, 1-benzoyl-4-[(4-methoxy-7-(3-(3-hydroxylethyl)-pyrazol-1-yl)-6-azaindol-3-yl)-oxoacetyl]piperazine]: under 1000 nM; for `O=C(C(=O)N1CCN(C(=O)c2ccccc2)CC1)c1c[nH]c2c(-n3cncn3)ncc(F)c12` [Example 215]: under 1000 nM; for `C[C@@H]1CN(C(=O)c2ccccc2)CCN1C(=O)C(=O)c1c[nH]c2c(-c3ccc(N)cn3)nccc12` [Example 114, (R)-1-benzoyl-3-methyl-4-[(7-(5-amino-pyridin-2-yl)-6-azaindol-3-yl)-oxoacetyl]piperazine]: under 1000 nM.
On to `COc1cnc(-n2ccc(NC(C)=O)n2)c2[nH]cc(C(=O)C(=O)N3CCN(C(=O)c4ccccc4)[C@H](C)C3)c12` [Example 262, (R)-1-benzoyl-2-methyl-4-[(4-methoxy-7-(3-acetylamino-pyrazol-1-yl)-6-azaindol-3-yl)-oxoacetyl]piperazine], for which the concentration giving a half-maximal response (EC50) with HIV-1 (setting [4]) is under 1000 nM.
On to `O=C(C(=O)N1CCN(C(=O)c2ccccc2)CC1)c1c[nH]c2c(-c3cncnc3)ncc(Cl)c12` [Example 144], for which the concentration giving a half-maximal response (EC50) in the series with HIV-1 (setting [3]) is under 1000 nM.
On to `COc1ccc(-c2ccnc3c(C(=O)C(=O)N4CCN(C(=O)c5ccccc5)C[C@@H]4C)c[nH]c23)cc1` [Example 66, 1-benzoyl-3-(S)-methyl-4-[(7-(4-methoxy)-4-azaindol-3-yl)-oxoacetyl]piperazine], for which, in the series with HIV-1 (setting [1]), the EC50 is under 1000 nM.
Consider `COc1cnc(-c2cnc(C)cn2)c2[nH]cc(C(=O)C(=O)N3CCN(C(=O)c4ccccn4)CC3)c12` [Example 180, 1-picolinoyl-4-[(4-methoxy-7-(2-methylpyrazin-5-yl)-6-azaindol-3-yl)-oxoacetyl]piperazine], for which, in the series on HIV-1 (setting [3]), the EC50 is under 1000 nM.
On the same count and under the same terms, the same measure for `C[C@@H]1CN(C(=O)c2ccccc2)CCN1C(=O)C(=O)c1c[nH]c2c(-c3cccnc3)nccc12` [Example 18, 1-benzoyl-3-(R)-methyl-4-[(7-(pyridin-3-yl)-6-azaindol-3-yl)-oxoacetyl]piperazine]: under 1000 nM.
As to `COCc1ncn(-c2ncc(OC)c3c(C(=O)C(=O)N4CCN(C(=O)c5ccccc5)CC4)c[nH]c23)n1` [Example 323], the concentration for a half-maximal effect (EC50) with HIV-1 (setting [3]) was under 1000 nM.
`COc1cnc(-n2ccc(C(C)O)n2)c2[nH]cc(C(=O)C(=O)N3CCN(C(=O)c4ccccc4)[C@H](C)C3)c12` (stereo partly drawn) [Example 235, (R)-1-benzoyl-2-methyl-4-[(4-methoxy-7-(3-(1-hydroxylethyl)-pyrazol-1-yl)-6-azaindol-3-yl)-oxoacetyl]piperazine]: the concentration giving a half-maximal response (EC50) in the series on HIV-1 (setting [4]) is under 1000 nM.
Regarding `COc1cnc(-c2cnc(N(C)CCN(C)C)cn2)c2[nH]cc(C(=O)C(=O)N3CCN(C(=O)c4ccccc4)CC3)c12` [Example 176, 1-benzoyl-4-[(4-methoxy-7-(2-(N-dimethylaminoethyl-N-methyl)aminopyrazin-S-yl)-6-azaindol-3-yl)-oxoacetyl]piperazine], the half-maximal effective concentration (EC50) in the series on HIV-1 (setting [3]) is under 1000 nM.
As for `Cc1nc(-c2cc(Cl)nc3c(C(=O)C(=O)N4CCN(C(=O)c5ccccc5)C[C@H]4C)c[nH]c23)[nH]c1C` [Example 62, 1-benzoyl-3-(R)-methyl-4-[(5-chloro-7-(4,5-dimethyl-imidazol-2-yl)-4-azaindol-3-yl)-oxoacetyl]piperazine], the concentration giving a half-maximal response (EC50) in the series on HIV-1 (setting [1]) was under 1000 nM.
As to `COc1cnc(-c2ccc(C(=O)O)o2)c2[nH]cc(C(=O)C(=O)N3CCN(C(=O)c4ccccc4)CC3)c12` [Example 87, 1-benzoyl-4-[(4-methoxy-7-(2-hydroxycarbonyl-furan-5-yl)-6-azaindol-3-yl)-oxoacetyl]piperazine], the concentration giving a half-maximal response (EC50) in the series on HIV-1 (setting [3]) is under 1000 nM.
`COc1cnc(-n2ccc(N)n2)c2[nH]cc(C(=O)C(=O)N3CCN(C(=O)c4ccccc4)[C@H](C)C3)c12` [Example 253, (R)-1-benzoyl-2-methyl-4-[(4-methoxy-7-(3-amino-pyrazol-1-yl)-6-azaindol-3-yl)-oxoacetyl]piperazine]: the EC50 in the series on HIV-1 (setting [4]) was under 1000 nM.
For the compound `O=C(C(=O)N1CCN(C(=O)c2ccccc2)CC1)c1c[nH]c2c(-c3cccc4cccnc34)nccc12` [Example 11, 1-benzoyl-4-[(7-(quinolin-8-yl)-6-azaindol-3-yl)-oxoacetyl]piperazine], the EC50 in the series with HIV-1 (setting [3]) is under 1000 nM.
On the same count and under the same terms, the same measure for `COc1ncc(-c2ncc(OC)c3c(C(=O)C(=O)N4CCN(C(=O)c5ccccc5)CC4)c[nH]c23)cn1` [Example 117, 1-benzoyl-4-[(4-methoxy-7-(2-methoxy-pyrmdin-5-yl)-6-azaindol-3-yl)-oxoacetyl]piperazine]: under 1000 nM.
Same read-out and setting: the same measure for `COc1cnc(-c2cnc(C)nc2)c2[nH]cc(C(=O)C(=O)N3CCN(C(=O)c4ccccc4)CC3)c12` [Example 171, 1-benzoyl-4-[(4-methoxy-7-(2-methyl-pyrimidin-5-yl)-6-azaindol-3-yl)-oxoacetyl]piperazine]: under 1000 nM; for `COc1cnc(-c2ccc3[nH]ccc3c2)c2[nH]cc(C(=O)C(=O)N3CCN(C(=O)c4ccccn4)CC3)c12` [Example 172, 1-picolinoyl-4-[(4-methoxy-7-(indol-5-yl)-6-azaindol-3-yl)-oxoacetyl]piperazine]: under 1000 nM.

The EC50 is the concentration at which the effect is half-maximal.

(Values after patent US20050090522A1 (priority 2001, published 2005).)
